According to ChEMBL document CHEMBL1156829 (Proc Natl Acad Sci U S A, 2008):

What was measured:
Plasmodium falciparum [1] = assay: NOVARTIS: Inhibition of Plasmodium falciparum 3D7 (drug-susceptible) proliferation in erythrocyte-based infection assay; format: functional, organism-based; settings: Plasmodium falciparum, 3D7
[2] = NOVARTIS: Cytotoxicity against human hepatocellular carcinoma cell line (Huh7); format: toxicity, cell-based, Huh-7; settings: Huh7 cells (hepatocellular carcinoma cell line)
Plasmodium falciparum [3] = assay: NOVARTIS: Inhibition of Plasmodium falciparum W2 (drug-resistant) proliferation in erythrocyte-based infection assay; format: functional, organism-based; settings: Plasmodium falciparum, W2; read-out: EC50

SMILES	EC50 (Plasmodium falciparum [1]) [nM]	CC50 [2] [nM]	EC50 (Plasmodium falciparum [3]) [nM]
CC(C)N(CCNc1ncnc2c1[nH]c1ccc(Cl)cc12)C(C)C	262	15200	252
Oc1c(C(Nc2ccccn2)c2ccncc2)ccc2cccnc12 (configuration not stated)	830	> 10000	892
c1ccc(-c2cc(N3CCN(c4ccccn4)CC3)nc(-c3ccccn3)n2)nc1	72.9	3030	76.7
Cc1cc(C)nc(SCc2cc(=O)c(OC(=O)c3ccccc3Br)co2)n1	> 11200	> 100000	> 11200
Brc1ccc(C=Cc2cc[n+](Cc3ccccc3)cc2)cc1	139	47300	103
Cn1cnc(S(=O)(=O)Nc2ccccc2C(=O)NCC2CC2)c1	> 1470	> 10000	82.1
O=c1c2c3c(sc2ncn1CCCc1ccccc1)CC(N1CCC(N2CCCCC2)CC1)CC3 (configuration not stated)	386	14800	2020
c1ccc(N=Nc2nnc(Nc3ccccc3)s2)cc1	957	> 10000	884
Cc1ccc2cc3cc(C(=O)NC(C)C)sc3nc2c1	989	> 10000	1120
CCC(C)CNC(=O)c1ccc(OC2CCN(CC3CCCCC3)CC2)c(Cl)c1 (configuration not stated)	78.2	> 13200	48.4
CCCCOc1ccc(C(=O)NCCOc2cccc(OC)c2)cc1	288	> 100000	> 12500
O=C(CC(=NNc1nc(NN=C(CC(=O)C(F)(F)F)C(F)(F)F)nc(N(c2ccccc2)c2ccccc2)n1)C(F)(F)F)C(F)(F)F	670	> 10000	1010
Oc1ccc(-c2ccc3c(c2)OCO3)cc1CNCC1(N2CCCCC2)CCCCC1	291	> 100000	35.4
O=C(Nc1ccc(SC(F)(F)F)cc1)Nc1cccnc1N1CCC(C(F)(F)F)CC1	1770	39700	1420
CC(C)(C)c1ccc(C2CC3=Nc4ccccc4N(C(=O)c4ccccc4Cl)C(c4ccc(F)cc4)C3=C(O)C2)cc1 (configuration not stated)	2630	> 100000	3940
CCOc1cc2c(cc1OCC)C(c1ccc(O)c(Cl)c1)NCC2 (configuration not stated)	157	> 97900	12.5
c1ccc2c(NCCc3c[nH]c4ccccc34)c3ccccc3nc2c1	86	7080	31.6

SMILES	EC50 (Plasmodium falciparum [1]) [nM]	CC50 [2] [nM]	EC50 (Plasmodium falciparum [3]) [nM]
CCOC(=O)c1c(C)oc2c1c1c(c3ccccc32)OCN(C2CCCC2)C1	11100	> 100000	2960
CCCCN(CC)S(=O)(=O)c1cc(Br)cc2c1N(C(C)=O)CC2	1560	> 10000	441
CN(CCCNc1ccnc2cc(Cl)ccc12)C(=O)CC(C)(C)C	236	> 10000	173
CC1CCCCN1CCCNc1ncc(C(=O)NCCCN2CCCC2=O)c(NCC2CCCCC2)n1 (configuration not stated)	850	> 10000	> 1250
CCc1ccccc1N=C1c2c(cccc2[N+](=O)[O-])C(=O)C1C(C)=O (configuration not stated)	11.3	> 100000	15.4
OC(CNc1cccc2ccccc12)Cn1c2ccc(Cl)cc2c2cc(Cl)ccc21 (configuration not stated)	403	54200	306
CC(=O)N1CCOC1C(C)(C)C/C=C(\C)CCC=C(C)C (configuration not stated)	806	> 14100	> 1690
Cc1cccc(OCC(=O)Nc2cccc(NC(=O)COc3cccc(C)c3)n2)c1	237	> 100000	1160
O=[N+]([O-])c1ccc(-n2ncc(-c3nc(-c4ccc(Cl)cc4)no3)c2C(F)(F)F)cc1	> 1210	> 10000	26.7
O=C(NC1CCN(CC(O)CN(Cc2ccccc2)S(=O)(=O)c2ccccc2)C1)C1CCCCC1 (configuration not stated)	185	> 10000	116
C[N+](C)(C)c1ccc2cc(Br)c3ccccc3c2c1	759	> 10000	1370
C=CCOc1c(Br)cc(C=c2sc3n(c2=O)C(c2ccc(OC)c(OC)c2)C(C(=O)OCC)=C(C)N=3)cc1OC (configuration not stated)	> 12500	> 100000	576
N#C/C(=C\c1ccccc1OCc1ccc(Cl)cc1Cl)c1nc2ccccc2[nH]1	348	> 10000	> 772
COc1cc(-c2cc(C)c3c(OC)ccc(OC)c3n2)cc2c1OCCN(C(=O)CCn1nc(C)cc1C)C2	2710	> 100000	913
COc1ccc(C=NNc2nc3ccccc3[nH]2)cc1OC	243	36500	128
CC(C)(C)NC(=S)Nc1cccc(Cl)c1Cl	> 7240	> 100000	2110
C1=C(c2ccc(CN3CCCCC3)cc2)N2CCN=C2c2ccccc21	278	4140	579
